According to US10125126B2, “N-cycloalkyl-N-[(heterocyclylphenyl)methylene]-(thio)carboxamide derivatives” (BAYER CROPSCIENCE AG, priority 2012, dated 2018):

test: log P by HPLC on a reversed-phase column (C 18), EEC Directive 79/831 Annex V.A8; assay type: physicochemical; conditions: HPLC on reversed-phase column (C 18), 40° C., 0.1% aqueous formic acid and acetonitrile, linear gradient 10% to 90% acetonitrile
Procedure: In table 1, the log P values were determined in accordance with EEC Directive 79/831 Annex V.A8 by HPLC (High Performance Liquid Chromatography) on a reversed-phase column (C 18), using the method described below: Temperature: 40° C.; Mobile phases: 0.1% aqueous formic acid and acetonitrile; linear gradient from 10% acetonitrile to 90% acetonitrile. Calibration was carried out using unbranched alkan-2-ones (comprising 3 to 16 carbon atoms) with known log P values (determination of the log P values by the retention times using linear interpolation between two successive alkanones). lambda-max-values were determined using UV-spectra from 200 nm to 400 nm and the peak values of the chromatographic signals.

Molecule | logP
Cc1nc(C(F)F)c(C(=O)N(Cc2cc(-c3cccs3)ccc2Cl)C2CC2)s1 [I.97] | 4.26
Cn1nc(C(F)F)c(C(=O)N(Cc2c(C3(C)CO3)ccc(Cl)c2F)C2CC2)c1Cl (stereo not shown) [I.10] | 3.37
Cn1nc(C(F)F)c(C(=O)N(Cc2ccccc2-c2ccco2)C2CC2)c1Cl [I.30] | 3.46
Cc1ccc(-c2csc3ccccc23)c(CN(C(=O)c2c(C(F)F)nn(C)c2Cl)C2CC2C)c1 (stereo not shown) [I.164] | 5.19
Cc1ccc(-c2csc3ccccc23)c(CN(C(=O)c2c(C(F)F)nn(C)c2Cl)C2CC2)c1 [I.162] | 4.83
COc1ccsc1-c1ccc(C)cc1CN(C(=O)c1c(C(F)F)nn(C)c1Cl)C1CC1C (stereo not shown) [I.128] | 4.41
Cc1nc(C(F)F)c(C(=O)N(Cc2cc(-c3ccc(Cl)s3)ccc2Cl)C2CC2)s1 [I.151] | 5.00
CC(C)c1ccc(-c2cnn(C)c2)cc1CN(C(=O)c1c(C(F)F)nn(C)c1F)C1CC1 [I.65] | 3.13
Cn1nc(C(F)F)c(C(=O)N(Cc2cc(Cl)ccc2C23CCCC2O3)C2CC2)c1F (stereo not shown) [I.18] | 3.60
Cc1ccc(-c2ccn(C)c2)c(CN(C(=O)c2c(C(F)F)nn(C)c2Cl)C2CC2)c1 [I.53] | 3.69
Cn1nc(C(F)F)c(C(=O)N(Cc2c(C3(C)CO3)ccc(Cl)c2Cl)C2CC2)c1Cl (stereo not shown) [I.11] | 3.67
COc1ccsc1-c1ccc(C)cc1CN(C(=O)c1c(C(F)F)nn(C)c1F)C1CC1C (stereo not shown) [I.127] | 4.21
N-cyclopropyl-3-(difluoromethyl)-5-fluoro-1-methyl-N-[2-(3-methyloxetan-3-yl)benzyl]-1H-pyrazole-4-carboxamide [I.15] | 1.94
Cn1nc(C(F)F)c(C(=S)N(Cc2ccccc2-c2ccsc2)C2CC2)c1Cl [I.80] | 4.39
Cc1nc(C(F)F)c(C(=O)N(Cc2cc(-c3ccsc3)ccc2Cl)C2CC2)s1 [I.96] | 4.14
Cn1nc(C(F)F)c(C(=O)N(Cc2ccccc2C23CCCCC2O3)C2CC2)c1F (stereo not shown) [I.24] | 3.48
Cn1nc(C(F)F)c(C(=O)N(Cc2ccccc2OC2CCOCC2)C2CC2)c1F [I.169] | 2.80
O=C(c1ccsc1I)N(Cc1cc(-c2cccs2)ccc1Cl)C1CC1 [I.91] | 4.91
Cc1ccc(-c2cnn(C)c2)c(CN(C(=O)c2c(C(F)F)nn(C)c2F)[C@@H]2C[C@H]2C)c1 (relative stereo) [I.63] | 2.82
Cc1cscc1-c1ccc(C(C)C)c(CN(C(=O)c2c(C(F)F)nn(C)c2F)C2CC2)c1 [I.110] | 4.72

Molecule | logP
Cn1nc(C(F)F)c(C(=O)N(Cc2cc(Cl)ccc2C23CCCCC2O3)C2CC2)c1F (stereo not shown) [I.23] | 3.99
Cc1cc(C(=O)N(Cc2cc(-c3cccs3)ccc2Cl)C2CC2)c(C)o1 [I.99] | 4.72
Cc1ccc(-c2ccn(C)c2)c(CN(C(=O)c2c(C(F)F)nn(C)c2F)C2CC2)c1 [I.51] | 3.55
O=C(c1ccsc1I)N(Cc1cc(Cl)ccc1-c1ccc(Cl)s1)C1CC1 [I.147] | 5.68
Cc1ccc(-c2csc3ccccc23)c(CN(C(=O)c2c(C(F)F)nn(C)c2F)C2CC2C)c1 (stereo not shown) [I.163] | 4.98
Cn1nc(C(F)F)c(C(=O)N(Cc2cc(-c3cccs3)ccc2Cl)C2CC2)c1Cl [I.85] | 4.29
Cc1ccc(-c2c(C)nn(C)c2C)c(CN(C(=O)c2c(C(F)F)nn(C)c2F)C2CC2)c1 [I.115] | 2.71
Cc1ccc(-c2cscc2C)c(CN(C(=O)c2cn(C)nc2C(F)F)C2CC2)c1 [I.109] | 3.83
Cc1ccc(-c2cscc2C)c(CN(C(=O)c2c(C(F)F)nn(C)c2Cl)C2CC2)c1 [I.107] | 4.41
Cn1nc(C(F)F)c(C(=O)N(Cc2cc(C34CCCCC3O4)ccc2Cl)C2CC2)c1F (stereo not shown) [I.22] | 3.99
Cc1cc(C(=O)N(Cc2cc(-c3ccsc3)ccc2Cl)C2CC2)c(C)o1 [I.98] | 4.59
Cn1nc(C(F)F)c(C(=O)N(Cc2c(C3(C)CO3)ccc(Cl)c2Cl)C2CC2)c1F (stereo not shown) [I.9] | 3.55
Cc1nc(C(F)F)c(C(=O)N(Cc2cc(-c3ccco3)ccc2Cl)C2CC2)s1 [I.46] | 3.99
Cn1cc(C(=O)N(Cc2cc(-c3ccsc3)ccc2Cl)C2CC2)c(C(F)F)c1 [I.92] | 4.06
COc1ccsc1-c1ccc(C)cc1CN(C(=O)c1c(C(F)F)nn(C)c1Cl)C1CC1 [I.126] | 3.99
Cn1nc(C(F)F)c(C(=O)N(Cc2ccccc2C23CCCCCC2O3)C2CC2)c1F (stereo not shown) [I.26] | 3.94
Cc1ccc(-c2c(C)nn(C)c2C)c(CN(C(=O)c2c(C(F)F)nn(C)c2Cl)C2CC2)c1 [I.117] | 2.80
Cn1nc(C(F)F)c(C(=O)N(Cc2ccccc2C2(C)OCCO2)C2CC2)c1F [I.20] | 2.94
Cc1ccc(-c2cnn(C)c2)c(CN(C(=O)c2c(C(F)F)nn(C)c2Cl)[C@@H]2C[C@H]2C)c1 (relative stereo) [I.64] | 2.86
COc1ccsc1-c1ccc(C)cc1CN(C(=O)c1cn(C)nc1C(F)F)C1CC1 [I.124] | 3.46

Molecule | logP
Cn1nc(C(F)F)c(C(=O)N(Cc2cc(Cl)ccc2C23CCCCCC2O3)C2CC2)c1F (stereo not shown) [I.25] | 4.44
Cc1nn(C)c(C)c1-c1ccc(C(C)C)c(CN(C(=O)c2c(C(F)F)nn(C)c2F)C2CC2)c1 [I.118] | 3.23
O=C(c1ccsc1I)N(Cc1cc(-c2ccsc2)ccc1Cl)C1CC1 [I.89] | 4.78
Cc1ccc(-c2csc3ccccc23)c(CN(C(=O)c2cn(C)nc2C(F)F)C2CC2C)c1 (stereo not shown) [I.165] | 4.46
Cc1ccc(-c2c(C)nn(C)c2C)c(CN(C(=O)c2cn(C)nc2C(F)F)C2CC2)c1 [I.116] | 2.45
Cc1ccc(-c2csc3ccccc23)c(CN(C(=O)c2cn(C)nc2C(F)F)C2CC2)c1 [I.161] | 4.15
Cc1ccc(-c2ccsc2Cl)c(CN(C(=O)c2c(C(F)F)nn(C)c2Cl)C2CC2)c1 [I.148] | 4.44
Cn1nc(C(F)F)c(C(=O)N(Cc2ccccc2C23CCCC2O3)C2CC2)c1F (stereo not shown) [I.19] | 3.12
Cc1ccc(-c2ccn(C)c2)c(CN(C(=O)c2cn(C)nc2C(F)F)C2CC2)c1 [I.52] | 3.19
Cc1ccc(-c2csc3ccccc23)c(CN(C(=O)c2c(C(F)F)nn(C)c2Cl)C2CC2C)c1 (stereo not shown) [I.167] | 5.05
CC(C)c1ccc(-c2cn(C)c3ccccc23)cc1CN(C(=O)c1c(C(F)F)nn(C)c1F)C1CC1 [I.153] | 4.74
Cc1ccc(C2(C)CO2)c(CN(C(=O)c2c(C(F)F)nn(C)c2F)C2CC2)c1F (stereo not shown) [I.12] | 3.17
Cn1nc(C(F)F)c(C(=O)N(Cc2cc(C34CCCC3O4)ccc2Cl)C2CC2)c1F (stereo not shown) [I.17] | 3.59
Cn1nc(C(F)F)c(C(=O)N(Cc2cc(-c3ccsc3)ccc2Cl)C2CC2)c1Cl [I.94] | 4.16
CC(c1ccccc1Cc1ccc(Cl)cn1)N(C(=O)c1c(C(F)F)nn(C)c1F)C1CC1 (stereo not shown) [I.171] | 3.68
Cc1ccc(-c2csc3ccccc23)c(CN(C(=O)c2c(C(F)F)nn(C)c2F)C2CC2C)c1 (stereo not shown) [I.166] | 4.92
O=C(c1ccsc1I)N(Cc1cc(-c2ccco2)ccc1Cl)C1CC1 [I.41] | 4.61
Cc1ccc(-c2coc3ccccc23)c(CN(C(=O)c2cn(C)nc2C(F)F)C2CC2)c1 [I.135] | 3.89
Cn1nc(C(F)F)c(C(=S)N(Cc2ccccc2-c2cccs2)C2CC2)c1Cl [I.81] | 4.49
Cn1nc(C(F)F)c(C(=O)N(Cc2ccccc2C2COC2)C2CC2)c1Cl [I.2] | 1.56

same assay, conditions: HPLC, C 18, 40° C., 0.1% aqueous formic acid and acetonitrile

Molecule | logP
N-cyclopropyl-3-(difluoromethyl)-5-fluoro-1-methyl-N-[2-(3-methyloxetan-3-yl)benzyl]-1H-pyrazole-4-carboxamide [I.15] | 1.94

same assay, conditions: logP

Molecule | chromatographic logP
C=C(C)c1ccc(Cl)cc1CN(C(=O)c1c(C(F)F)nn(C)c1F)C1CC1 [N-[5-chloro-2-(prop-1-en-2-yl)benzyl]-N-cyclopropyl-3-(difluoromethyl)-5-fluoro-1-methyl-1H-pyrazole-4-carboxamide] | 3.96
CC(C)c1ccc(Cl)cc1CNC(=O)c1c(C(F)F)nn(C)c1F [Xa.1, N-(5-chloro-2-isopropylbenzyl)-3-(difluoromethyl)-5-fluoro-1-methyl-1H-pyrazole-4-carboxamide] | 3.46

same assay, conditions: reversed-phase HPLC column (C 18), HPLC, C 18, 40° C., 0.1% aqueous formic acid and acetonitrile; read-out: logP

Molecule | chromatographic logP
Clc1ccc(-c2ccsc2)cc1CNC1CC1 [IIb.3, N-[2-chloro-5-(3-thienyl)benzyl]cyclopropanamine] | 1.28
Clc1ccc(-c2ccsc2)c(CNC2CC2)c1 [IIa.5, N-[5-chloro-2-(3-thienyl)benzyl]cyclopropanamine] | 1.12
Clc1ccc(-c2cccs2)cc1CNC1CC1 [IIb.2, N-[2-chloro-5-(2-thienyl)benzyl]cyclopropanamine] | 1.29
CC(NC1CC1)c1ccccc1-c1ccsc1 (stereo not shown) [IIa.4, N-{1-[2-(3-thienyl)phenyl]ethyl}cyclopropanamine] | 1.42
Clc1ccc(-c2ccco2)c(CNC2CC2)c1 [IIa.1, N-[5-chloro-2-(2-furyl)benzyl]cyclopropanamine] | 0.99
Clc1ccc(-c2ccc(Cl)s2)c(CNC2CC2)c1 [IIa.7, N-[5-chloro-2-(5-chloro-2-thienyl)benzyl]cyclopropanamine] | 1.51
CC(C)c1ccc(Cl)cc1CN [1-(5-chloro-2-isopropylphenyl)methanamine] | 1.2
CC(C)c1ccc(Cl)cc1CN(C(=O)c1c(C(F)F)nn(C)c1F)C1CC1 [N-(5-chloro-2-isopropylbenzyl)-N-cyclopropyl-3-(difluoromethyl)-5-fluoro-1-methyl-1H-pyrazole-4-carboxamide] | 4.06
Clc1ccc(-c2ccccc2CNC2CC2)s1 [IIa.6, N-[2-(5-chloro-2-thienyl)benzyl]cyclopropanamine] | 1.28
Clc1ccc(-c2ccco2)cc1CNC1CC1 [IIb.1, N-[2-chloro-5-(2-furyl)benzyl]cyclopropanamine] | 1.08
